Experimental data published in US20230346956A1, “COMPLEX OF 7-DEACETYLFORSKOLIN AND PVP” (SciPharm S.à.r.l, priority 2020, published 2023).
≈ marks a conversion by molar mass, not a printed value.

Tests used:
[1] = Determination of water solubility (excess complex in water, filtration, HPLC); type: physicochemical; conditions: content of active in filtrate by HPLC
Protocol: For the solubility tests, the respective complex dried by means of rotary evaporator was used. A defined amount of water is added and then complex is added until an excess of 7-DAFSK-PVP is present. The supersaturated solution is sonicated, stirred and slightly heated (water bath 40° C.). The suspension is then filtered (0.45 μm filter) and the content of 7-DAFSK in the filtrate is determined by HPLC.

[2] = tested on: adenylyl cyclase (HEK293 cells stably expressing EP2 receptor); assay: cAMP assay, HEK293 cells with EP2 receptor; type: cell-based, human; conditions: 30 μM forskolin in DMSO, 100 μM 7-DAFSK in water or as PVP K12 complex in water, with 30 μM treprostinil, treprostinil alone = control, 30 min, room temperature
Protocol: (§1) A cAMP assay was performed using HEK293 cells (human embryonic kidney cells, 1970) with the prostaglandin receptors EP2 or EP4, or the prostacyclin receptor IP. HEK293 cells were incubated with FCS and a radioligand ([^3H] adenine). The formation of cAMP ([^3H] cAMP) was monitored experimentally.
(§2) Day 1: HEK293 cells stably expressing either EP2, EP4, or IP receptors were grown on a 6-well plate in 2 mL DMEM medium containing 10% FCS and 2 μCi [^3H]-adenine and incubated for 16 hours.
(§3) Day 2: Cells were stimulated with 30 μM treprostinil alone or in combination with […] forskolin in DMSO, 100 μM 7-DAFSK in water, or 100 μM 7-DAFSK in 7-DAFSK-PVP K12 complex in water (in fresh medium for 30 minutes at room temperature). Cells were then lysed with 2.5% perchloric acid (PCA) for 30 minutes on ice. The PCA extract was neutralized with KOH and [^3H]cAMP was separated by sequential chromatography using DOWEX and alumina columns. Radioactivity was then measured using a scintillator.
(§4) An aliquot of PCA extract from each well was used to measure radioactivity.

[3] = tested on: adenylyl cyclase (HEK293 cells stably expressing IP receptor); assay: cAMP assay, HEK293 cells with IP receptor; type: cell-based, human; conditions: 30 μM forskolin in DMSO, 100 μM 7-DAFSK in water or as PVP K12 complex in water, with 30 μM treprostinil, treprostinil alone = control, 30 min, room temperature
Protocol: as §1, §2, §3, §4

[4] = tested on: adenylyl cyclase (HEK293 cells stably expressing EP4 receptor); assay: cAMP assay, HEK293 cells with EP4 receptor; type: cell-based, human; conditions: 30 μM forskolin in DMSO, 100 μM 7-DAFSK in water or as PVP K12 complex in water, with 30 μM treprostinil, treprostinil alone = control, 30 min, room temperature
Protocol: as §1, §2, §3, §4

[5] = Amount going into solution in 6 mL H2O after the preparation procedure (0.45 μm filtration, HPLC); type: physicochemical; conditions: control sample without PVP12, heating method, 20 mg 7-DAFSK
Protocol: For the complexation of 7-deacetyl-forskolin with PVP K12 (“Kollidon” 12 PF, Ph. Eur., USP, JP; BASF, average molar mass: about 2.5 kD), 20 mg of 7-DAFSK and 20 mg of PVP K12 were triturated in a porcelain crucible and 300 μL of ethanol was added and stirred. After 10 min, 100 μL of H2O was added, stirred, and allowed to stand again for 10 min. The solution was then heated to 140° C. in a drying oven within 40 min and left in it for a total of 45 min. After cooling, 3 mL of H2O was added and stirring was performed for 20-30 min. Then, the suspension was taken up with a syringe and filtered through 0.45 μm filter (hydrophilic). The crucible was rewashed with 3 mL H2O and the wash solution was also filtered through the filter. The content of 7-DAFSK dissolved in the 6 mL H2O was determined by HPLC. For the determination, the 7-DAFSK-PVP complex solution was diluted 1:10 with running medium. A mass fraction of 7-DAFSK in the total complex of 35 wt % was determined.
To optimize the content of 7-DAFSK in the total complex, the weight ratios of 7-DAFSK and PVP K12 used were varied (FIG. 3). […]
20 mg FSK and 40 mg PVP 25 were triturated in a porcelain crucible and 300 μL ethanol (alternatively propanol) was added and stirred. […] The content of FSK dissolved in the 6 mL H2O was determined by HPLC. A mass fraction of FSK in the total complex of <0.01 wt % was determined.

[6] = literature/background value; cited from earlier work

| water solubility [1] [mg/mL] | proportion of the 7-DAFSK used brought into solution [5] | solubility ([1]; 40 °C, thermodynamic from solid) [mg/mL] | Compound | activation of adenylyl cyclase ([3H]cAMP formation) [2] | activation of adenylyl cyclase ([3H]cAMP formation) [3] | activation of adenylyl cyclase ([3H]cAMP formation) [4] | solubility in water [6] |
| --- | --- | --- | --- | --- | --- | --- | --- |
| 1 (≈ 2710 µM) | less than a quarter |  | C=C[C@@]1(C)CC(=O)[C@]2(O)[C@@]3(C)[C@@H](O)CCC(C)(C)[C@@H]3[C@H](O)[C@H](O)[C@@]2(C)O1 [7-DAFSK, 7-deacetyl-forskolin] | enhanced activity | enhanced activity | enhanced activity | up to 1 mg/mL |
|  |  | 0.01 (≈ 24.4 µM) | C=C[C@@]1(C)CC(=O)[C@]2(O)[C@@]3(C)[C@@H](O)CCC(C)(C)[C@@H]3[C@H](O)[C@H](OC(C)=O)[C@@]2(C)O1 [FSK, forskolin] |  |  |  | 0.01 mg/mL (≈ 24.4 µM) |
|  |  |  | CCCCC[C@H](O)CC[C@@H]1[C@H]2Cc3cccc(OCC(=O)O)c3C[C@H]2C[C@H]1O [Treprostinil, treprostinil] | no activation of AC | no activation of AC | no activation of AC |  |
